Activity calls are given as the source filed them. The calls are words filed in the database; no cut-off is given here. Starred links: 1 amine or outer side, 2 acyl side, 3 side chain; linkers in the order of their positions; H or OH if unused. Non-standard residues stand in square brackets, D forms with d. Residues, ends and D or L forms follow the SMILES beside them. NH(CH2)9CO = O=C(CCCCCCCCCN[*:1])[*:2]; X2 = O=C(C1CCCC(CN[*:1])C1)[*:2]; Aun = NCCCCCCCCCCC(=O)O; Ahx = NCCCCCC(=O)O
Key:
[1] = system: Human immunodeficiency virus type 1 integrase (Human immunodeficiency virus 1), Q7ZJM1 [F185K,C280S]; assay: Inhibition of HIV1 integrase F185K/C280S double mutant dimerization expressed in Escherichia coli BL21 (DE3) at 100 fold excess compound concentration after 1 hr by PAGE analysis
[2] = system: Human immunodeficiency virus type 1 integrase (Human immunodeficiency virus 1), Q7ZJM1 [F185K,C280S]; assay: Inhibition of HIV1 integrase F185K/C280S double mutant dimerization expressed in Escherichia coli BL21 (DE3) at 110 uM after 1 hr by PAGE analysis
[3] = target: Human immunodeficiency virus type 1 integrase (Human immunodeficiency virus 1, UniProt Q7ZJM1, C280S/F185K); assay: Inhibition of HIV1 3'-processing activity of integrase F185K/C280S double mutant expressed in Escherichia coli BL21 (DE3)

Structure (SMILES)	inhibition [1]	inhibition [2]	IC50 [3]
CC[C@H](C)[C@H](NC(=O)[C@H](CC(=O)O)NC(=O)[C@@H](NC(=O)[C@H](C)NC(=O)[C@@H](NC(=O)[C@@H](NC(=O)[C@H](CC(=O)O)NC(=O)[C@@H](NC(=O)[C@@H](NC(=O)[C@H](CCCNC(=N)N)NC(=O)[C@H](CCC(=O)O)NC(=O)CNC(=O)[C@H](C)NC(=O)CCCCCNC(=O)[C@H](CCCNC(=N)N)NC(=O)[C@H](CCCCN)NC(=O)[C@H](Cc1ccccc1)NC(=O)[C@H](CC(N)=O)NC(=O)[C@H](Cc1cnc[nH]1)NC(=O)[C@@H](NC(=O)[C@H](Cc1ccccc1)NC(=O)[C@@H](NC(=O)[C@H](C)NC(=O)[C@H](CCSC)NC(=O)[C@H](CCC(N)=O)NC(=O)[C@@H](NC(=O)[C@H](C)NC(=O)[C@@H](NC(=O)[C@H](CCCCN)NC(=O)[C@H](CC(C)C)NC(=O)[C@@H](N)Cc1cnc[nH]1)[C@@H](C)O)C(C)C)C(C)C)[C@@H](C)CC)[C@@H](C)CC)C(C)C)[C@@H](C)CC)[C@@H](C)CC)[C@@H](C)O)C(=O)N[C@@H](CCC(N)=O)C(N)=O (H-HLKTAVQMAVFIHNFKR[Ahx]AGERIVDIIATDIQ-NH2)	inactive	inactive	1.5 µM
CC[C@H](C)[C@H](NC(=O)[C@H](CC(=O)O)NC(=O)[C@@H](NC(=O)[C@H](C)NC(=O)[C@@H](NC(=O)[C@@H](NC(=O)[C@H](CC(=O)O)NC(=O)[C@@H](NC(=O)[C@@H](NC(=O)[C@H](CCCNC(=N)N)NC(=O)[C@H](CCC(=O)O)NC(=O)CNC(=O)[C@H](C)NC(=O)C1CCCC(CNC(=O)[C@H](CCCNC(=N)N)NC(=O)[C@H](CCCCN)NC(=O)[C@H](Cc2ccccc2)NC(=O)[C@H](CC(N)=O)NC(=O)[C@H](Cc2cnc[nH]2)NC(=O)[C@@H](NC(=O)[C@H](Cc2ccccc2)NC(=O)[C@@H](NC(=O)[C@H](C)NC(=O)[C@H](CCSC)NC(=O)[C@H](CCC(N)=O)NC(=O)[C@@H](NC(=O)[C@H](C)NC(=O)[C@@H](NC(=O)[C@H](CCCCN)NC(=O)[C@H](CC(C)C)NC(=O)[C@@H](N)Cc2cnc[nH]2)[C@@H](C)O)C(C)C)C(C)C)[C@@H](C)CC)C1)[C@@H](C)CC)C(C)C)[C@@H](C)CC)[C@@H](C)CC)[C@@H](C)O)C(=O)N[C@@H](CCC(N)=O)C(N)=O (some centres undefined) (H-HLKTAVQMAVFIHNFKR[X2]AGERIVDIIATDIQ-NH2)	–	Active	1 µM
CC[C@H](C)[C@H](NC(=O)[C@H](CC(=O)O)NC(=O)[C@@H](NC(=O)[C@H](C)NC(=O)[C@@H](NC(=O)[C@@H](NC(=O)[C@H](CC(=O)O)NC(=O)[C@@H](NC(=O)[C@@H](NC(=O)[C@H](CCCNC(=N)N)NC(=O)[C@H](CCC(=O)O)NC(=O)CNC(=O)[C@H](C)NC(=O)CCCCCCCCCCNC(=O)[C@H](CCCNC(=N)N)NC(=O)[C@H](CCCCN)NC(=O)[C@H](Cc1ccccc1)NC(=O)[C@H](CC(N)=O)NC(=O)[C@H](Cc1cnc[nH]1)NC(=O)[C@@H](NC(=O)[C@H](Cc1ccccc1)NC(=O)[C@@H](NC(=O)[C@H](C)NC(=O)[C@H](CCSC)NC(=O)[C@H](CCC(N)=O)NC(=O)[C@@H](NC(=O)[C@H](C)NC(=O)[C@@H](NC(=O)[C@H](CCCCN)NC(=O)[C@H](CC(C)C)NC(=O)[C@@H](N)Cc1cnc[nH]1)[C@@H](C)O)C(C)C)C(C)C)[C@@H](C)CC)[C@@H](C)CC)C(C)C)[C@@H](C)CC)[C@@H](C)CC)[C@@H](C)O)C(=O)N[C@@H](CCC(N)=O)C(N)=O (H-HLKTAVQMAVFIHNFKR[Aun]AGERIVDIIATDIQ-NH2)	–	Active	0.85 µM
CC[C@H](C)[C@H](NC(=O)[C@H](CC(=O)O)NC(=O)[C@@H](NC(=O)[C@H](C)NC(=O)[C@@H](NC(=O)[C@@H](NC(=O)[C@H](CC(=O)O)NC(=O)[C@@H](NC(=O)[C@@H](NC(=O)[C@H](CCCNC(=N)N)NC(=O)[C@H](CCC(=O)O)NC(=O)CNC(=O)[C@H](C)NC(=O)CCCCCCCCCNC(=O)[C@H](CCCNC(=N)N)NC(=O)[C@H](CCCCN)NC(=O)[C@H](Cc1ccccc1)NC(=O)[C@H](CC(N)=O)NC(=O)[C@H](Cc1cnc[nH]1)NC(=O)[C@@H](NC(=O)[C@H](Cc1ccccc1)NC(=O)[C@@H](NC(=O)[C@H](C)NC(=O)[C@H](CCSC)NC(=O)[C@H](CCC(N)=O)NC(=O)[C@@H](NC(=O)[C@H](C)NC(=O)[C@@H](NC(=O)[C@H](CCCCN)NC(=O)[C@H](CC(C)C)NC(=O)[C@@H](N)Cc1cnc[nH]1)[C@@H](C)O)C(C)C)C(C)C)[C@@H](C)CC)[C@@H](C)CC)C(C)C)[C@@H](C)CC)[C@@H](C)CC)[C@@H](C)O)C(=O)N[C@@H](CCC(N)=O)C(N)=O (H-HLKTAVQMAVFIHNFKR[NH(CH2)9CO]AGERIVDIIATDIQ-NH2)	–	Active	0.76 µM

Source: ChEMBL document CHEMBL2396590, “Inhibition of HIV-1 integrase dimerization and activity with crosslinked interfacial peptides” (Bioorg Med Chem, 2013)
